# Several values for one entry are separate records, joined by “and”; a condition that tells them apart may be missing. Identical values can stand only once.
# Assays:
# rat [1] = assay: Dissociation factor: ovulation inhibition test versus implantation inhibition in the rat; type: in vivo; conditions: for Dissociation factor: ratio of ovulation-inhibiting dose and implantation inhibiting dose, rat, peroral administration; for peripherally selective effectiveness (endometrium versus hypophysial-ovarian axis): endometrial effect very greatly pronounced, at the same dose at most only a slight central effect
# Excerpt: Such competitive progesterone antagonists can also be designated as dissociated, since at a specific threshold dose, although changes of the endometrium are observed, ovulation (central effect) is not inhibited. The ratio of ovulation-inhibiting dose and implantation inhibiting dose (dissociation factor) (as determined in the rat after peroral administration) can be used as a measurement of the dissociation. This ratio varies from species to species but is at least about 30 or higher in a dissociated or competitive progesterone antagonist.
# Such competitive progesterone antagonists can also be designated as dissociated, since at a specific threshold dose, changes of the endometrium are observed, but the ovulation (central effect) is not inhibited. The ratio of ovulation-inhibiting and implantation inhibiting (dissociation factor) doses can be used as a measurement for the dissociation. It varies depending on the species and is about. 30 or more for a dissociated competitive progesterone antagonist (in the rat after peroral administration) to be used according to the invention.
# To determine the ovulation-inhibiting doses of competitive progesterone antagonists, the ovulation-inhibiting test described below is performed on the rat; the respective abortively effective doses follow from the known (e.g., U.S. Pat. No. 5,095,129) rat abortive test.
# Ovulation Inhibition Test on the Rat
# For detection of ovulation-inhibiting substances, the rat is well-suited insofar as it spontaneously ovulates and the cycle can easily be observed by means of vaginal smears. This makes it possible to control the course of the test also during the treatment phase.
# Female rats weighing 190-210 g, pro dosi 6 animals.
# The animals are kept in Macrolon cages in rooms with controlled exposure to light (10 hours of darkness: 14 hours of brightness), fed a standard diet (pelletized rat food) and tap water at will.
# The test substances are dissolved in benzyl benzoate/castor oil (1+9 v/v) and the daily dose is administered in a volume of 0.2 ml s.c.
# In the oral application, the test substance is suspended in a carrier liquid (85 mg of Myrj® in 100 ml of 0.9% w/v NaCl solution) and the daily dose is administered in a volume of 0.5 ml.
# Two cycles are observed before the beginning of the test by means of vaginal smears. Only animals with a regular 4-day cycle are used in the test. The assignment to the treatment groups takes place at random. Beginning in the metestrus, the test substance is administered over 4 days (day 1-4) and the cycle is further controlled.
# On day 4 (after the administration), animals, which have an estrus or metestrus at the time of the vaginal smear, are ovariectomized on one side under ether anesthesia. Crush preparations are prepared from the tubes and examined by microscope for the presence of egg cells. On day 5, all animals (intact and unilaterally ovariectomized) are killed with CO2 gas and the tubes are prepared and examined in the same way.
# In the individual dosage groups, the percentage of animals in which the ovulation was inhibited is determined.
# [2] = tested on: adult, female bonnet monkeys (Macaca radiata); assay: Weekly s.c. Onapriston in bonnet monkeys: length of menstrual cycle and menstrual period; type: in vivo; conditions: for Length of MC, After-treatment Cycle / Length of MC, Treatment Cycle 1 / Length of MC, Treatment Cycle 2 / Length of MD, After-treatment Cycle / Length of MP, Treatment Cycle 1 / Length of MP, Treatment Cycle 2 / Length of MC, Pretreatment Cycle / Length of MP, Pretreatment Cycle: individual animals; for Length of MC, Pretreatment Cycle / Length of MP, Pretreatment Cycle: pretreatment cycle (baseline)
# Excerpt: (§1) The above-described use of competitive progesterone antagonists is evidenced by tests performed with Onapriston [11β-(4-dimethylaminophenyl)-17α-hydroxy-17β-(3-hydroxy-propyl)-13α-methyl-4,9-gonadien-3-one; EP-A-0129499], a typically competitive progesterone antagonist, on adult, female bonnet monkeys (Macaca radiata).
# humans = conditions: 50 mg, given during the late luteal phase; cited from earlier work
# endometrium = assay: Weekly s.c. Onapriston in bonnet monkeys: endometrial histology (biopsy day 20 of second cycle); type: in vivo, Macaca radiata; conditions: both treatment groups (5 mg and 10 mg weekly s.c.), after 7 administrations
# Excerpt: as §1
# women = assay: Human Study 3: once-a-week oral onapristone; type: in vivo; conditions: once-a-week oral 0.25-50 mg over two cycles
# Description: Duration of the study: Evaluation of three cycles: pre-treatment, treatment and post-treatment cycles. • Regimen: 18 daily oral administration of 20 mg (group 1), 10 mg (group 2) and 5 mg (group 3) onapristone starting on day 1 of the cycle. c) Evaluation: • RIA, LH, FSH, E2 and progesterone and cortisol during the pre-treatment, treatment and post-treatment cycles. • Evaluation of endometrial biopsies and collection of the uterine fluid (by prevical) on day 16 and day 23 of the treatment cycle (see appendix for details) • Occurrence of menstrual bleeding. Human Study 3: Effects of once-a-week administration of onapristone on ovulation, endometrial morphology and biochemistry a) Objective:
# Groups of volunteers: […] (five treatment groups and a control group) of 8-10 women with ligated oviducts.
# Duration of the study: Evaluation of four cycles: pre-treatment, two treatment and post-treatment cycles.
# Once-a-week oral administration of 50 mg (group 1) 20 mg (group 2), 10 mg (group 3) 2 mg ([…]) and 0.25 mg (group 5), onapristone starting on day 1 of the cycle over the two cycles.
# RIA, LH, FSH, E2 and progesterone during the pre-treatment, treatment and post-treatment cycles.
# Evaluation of endometrial biopsies and collection of the uterine fluid on day 16 and day 23 of both treatment cycles (see appendix for details).
# Occurrence of menstrual bleeding and cycle abnormalities: […]
# [3] = tested on: adult, female bonnet monkeys (Macaca radiata); assay: Weekly s.c. Onapriston in bonnet monkeys: estradiol and progesterone levels (RIA), folliculogenesis and ovulation; type: in vivo; conditions: 5 mg and 10 mg per animal s.c. weekly, 2 cycles
# Excerpt: as §1
# [4] = Thymolysis test for antiglucocorticoidal effect; type: in vivo; conditions: thymolysis test (EP-A-0 283 428)
# Excerpt: This is seen from the thymolysis test for antiglucocorticoidal effect (EP-A-0 283 428).
# rat [5] = assay: Implantation inhibition (antinidatory effectiveness) in the rat; type: in vivo
compound,measurement,setting,value
"CC#C[C@]1(O)CC[C@H]2[C@@H]3CCC4=CC(=O)CCC4=C3[C@@H](c3ccc(N(C)C)cc3)C[C@@]21C [RU 486, 11β-[4-N,N-(dimethylamino)phenyl]-17β-hydroxy-17α-propinyl-estra-4,9(10)-dien-3-one]",Dissociation factor,rat [1],<10
"CN(C)c1ccc([C@H]2C[C@]3(C)[C@@H](CC[C@]3(O)CCCO)[C@@H]3CCC4=CC(=O)CCC4=C32)cc1 [Onapriston, 11β-(4-dimethylaminophenyl)-17α-hydroxy-17β-(3-hydroxy-propyl)-13α-methyl-4,9-gonadien-3-one]",length of the cycle and the menstrual period relative to the control group,"[2]; 5 mg and 10 mg per animal s.c. weekly, 2 cycles",not changed
same,"Length of MC, After-treatment Cycle","[2]; Group 2, 5 mg/week s.c.",27 day (2×) and 31 day
same,"Length of MC, Treatment Cycle 1","[2]; Group 2, 5 mg/week s.c.",24 days and 27 days and 26 days
same,"Length of MC, Treatment Cycle 2","[2]; Group 2, 5 mg/week s.c.",39 days and 29 days and 26 days
same,"Length of MD, After-treatment Cycle","[2]; Group 2, 5 mg/week s.c.",4 day (2×) and 3 day
same,"Length of MP, Treatment Cycle 1","[2]; Group 2, 5 mg/week s.c.",2 day and 1 day (2×)
same,"Length of MP, Treatment Cycle 2","[2]; Group 2, 5 mg/week s.c.",5 day and 1 day (2×)
same,"Length of MC, Pretreatment Cycle","[2]; Group 2, 5 mg/week s.c.",26 days and 28 days and 24 days
same,"Length of MP, Pretreatment Cycle","[2]; Group 2, 5 mg/week s.c.",1 day (2×) and 3 day
same,"Length of MC, After-treatment Cycle","[2]; Group 3, 10 mg/week s.c.",26 days and 48 days and 27 days
same,"Length of MC, Treatment Cycle 1","[2]; Group 3, 10 mg/week s.c.",25 days and 26 days and 28 days
same,"Length of MD, After-treatment Cycle","[2]; Group 3, 10 mg/week s.c.",4 days and 1 days and 3 days
same,"Length of MP, Treatment Cycle 1","[2]; Group 3, 10 mg/week s.c.",3 day and 1 day (2×)
same,"Length of MP, Treatment Cycle 2","[2]; Group 3, 10 mg/week s.c.",1 day (2×) and 2 day
same,"Length of MC, Treatment Cycle 2","[2]; Group 3, 10 mg/week s.c., * = 2 ovulation cycles, bleeding slight after the first cycle",53* day and 25 day and 28 day
same,"Length of MC, Pretreatment Cycle","[2]; Group 3, 10 mg/week s.c.",26 days and 24 days and 30 days
same,"Length of MP, Pretreatment Cycle","[2]; Group 3, 10 mg/week s.c.",4 days and 2 days and 3 days
same,effect on menstruation,humans,induce premature menstruation
same,endometrial histology in contrast to control animals,endometrium,atrophied
same,contraception reliability,women,high contraception reliability
same,control of the cycle compared to the control group,women,better control of the cycle
same,tolerance,women,high tolerance
same,folliculogenesis and ovulation (estradiol and progesterone levels),[3],occurred normally in all animals
"11β,19-[4-(4-cyanophenyl)-o-phenylene]-17β-hydroxy-17α-(3-hydroxyprop-1(Z)-enyl)-4-androsten-3-one [I]",peripherally selective effectiveness (endometrium versus hypophysial-ovarian axis),rat [1],surprisingly pronounced peripherally selective effectiveness
same,Dissociation factor,rat [1],>100
same,antiglucocorticoidal effect,[4],not simultaneously antiglucocorticoidally effective
same,daily dose still completely implantation-inhibiting effective,rat [5],0.1 mg
"11β,19-[4-(3-pyridinyl)-o-phenylene]-17β-hydroxy-17α-(3-hydroxyprop-1(Z)-enyl)-4-androsten-3-one [II]",peripherally selective effectiveness (endometrium versus hypophysial-ovarian axis),rat [1],surprisingly pronounced peripherally selective effectiveness
same,Dissociation factor,rat [1],>30
same,antiglucocorticoidal effect,[4],not simultaneously antiglucocorticoidally effective
same,daily dose still completely implantation-inhibiting effective,rat [5],0.3 mg

# — patent US7297702B2, “Contraception method using competitive progesterone antagonists and novel compounds useful therein” (Schering Aktiengesellschaft, priority 2004, dated 2007)
